Patent US9949976B2, “Kinase inhibitor and use thereof” (Sihuan Pharmaceutical Holdings Group Ltd., priority 2013, dated 2018)
Read-outs that look alike come from different tables or passages of the source.

Assays:
[1] = In vivo assay for blood brain barrier permeability in rat; conditions: male, SD, 30 mg/kg, PO
Method: Test animal: male SD rat, 3 rats/test compound/time point, weight: 250-300 g/rat
After separate PO administration of control agent and compound 1, blood was collected by cardiac puncture at 2, 4, 24 and 48 h; about 8 ml whole blood was collected, and placed in a centrifuge tube containing K2EDTA anticoagulant agent; cerebrospinal fluid and brain tissue were also collected at the same time, 3 rats at each time point. The collected whole blood was centrifuged at 3000 r/min at 4° C. in a high speed centrifuge for 10 min to separate the plasma; and the plasma was stored in a refrigerator at −80° C. After sample collection, the concentrations of control agent and compound 1 in plasma, brain tissue and cerebrospinal fluid were determined, respectively.
The plasma samples of control agent and compound 1 were analyzed by precipitation of protein: the test samples were taken from the refrigerator (−80° C.), thawed at room temperature, and then vortexed for 3 min; to 30 μL plasma, 200 μL internal standard (acetonitrile solution containing 25 ng/mL PD0332991) was added; the resultant mixture was vortexed for 10 min at 1500 r/min, and centrifuged at 4000 r/min for 20 min; to 100 μL supernatant, 100 μL water was added; the resultant mixture was mixed homogeneously under vortexing and analyzed by LC-MS/MS.
The brain tissue and cerebrospinal fluid samples for control agent and compound 1 were analyzed by precipitation of protein: the test samples were taken from the refrigerator (−80° C.), thawed at room temperature, and then vortexed for 3 min; to 20 μL homogenated brain tissue sample, 200 μL internal standard (a solution of methanol and water at 1:1 containing 40 ng/mL dextromethorphan and 50 ng/mL dextrorphan) was added; the resultant mixture was vortexed for 3 min at 1500 r/min, and centrifuged at 4° C., 4000 g for 5 min; to 100 μL supernatant, 50 μL 0.1% formic acid-water was added; the resultant mixture was mixed homogeneously under vortexing and analyzed by LC-MS/MS. Cerebrospinal fluid sample was treated by the same way as the homogenated brain tissue sample.

[2] = Pharmacokinetics in nude mouse (IV and PO); format: in vivo; conditions: female, BALB/c nude, plasma; for Vd: read-out: Vss; for bioavailability: read-out: F (absolute bioavailability)
Method: Test animal: female nude mouse (BALB/c); control agent: 3 mice/administration route at each time point, weight: 22-25 g/mouse; Compound 1: 3 mice/administration route at each time point, weight: 22-25 g/mouse; Compound 6-1: 6 mice/administration route/test compound, weight: 18-26 g/mouse.
Control agent/Compound 1, IV administration group: before administration, 0.083, 0.25, 0.5, 1, 2, 4, 6, 8, 24, and 30 h after administration; PO administration group (10 mg/kg): before administration, 0.167, 0.5, 1, 2, 4, 6, 8, 24, and 30 h after administration.
Compound 1, PO administration group (100 mg/kg): 0.167, 0.5, 1, 2, 4, 6, 8, 24, 30, and 48 h after administration.
Compound 6-1, IV administration group (2.5 mg/kg) and PO administration group (10 mg/kg): 0.083, 0.25, 0.5, 1, 2, 4, 6, 8 and 24 h after administration; Compound 6-1, PO administration group (100 mg/kg): 0.083, 0.25, 0.5, 1, 2, 4, 6, 8, 24, 30, 48 h after administration.
Control agent/Compound 1: 300 μL whole blood was collected from intraocular canthus at each time point, and was centrifuged at 8000 r/min for 6 min in a high speed centrifuge to separate the plasma; the plasma was stored in a refrigerator at −80° C. Compound 6-1: 60 μL whole blood was collected from intraocular canthus at each time point, and was placed in an anticoagulation tube containing anticoagulant agent K2EDTA; the blood sample was centrifuged at 8000 r/min for 6 min to obtain a plasma sample.
The plasma samples of control agent and compound 1 were analyzed by precipitation of protein: to 50 μL plasma, 200 μL internal standard (acetonitrile solution containing 500 ng/mL Warfarin) was added; the resultant mixture was vortexed for 3 min at 1500 r/min, and centrifuged for 5 min at 13000 r/min; to 100 μL supernatant, 400 μL water was added; the resultant mixture was mixed homogeneously under vortexing and analyzed by LC-MS/MS.
The plasma sample of compound 6-1 was analyzed by precipitation of protein: to a suitable amount of plasma, a given volume of internal standard solution was added; the resultant mixture was vortexed and centrifuged; the supernatant was diluted by adding a given volume of water; the resultant mixture was mixed homogeneously under vortexing and analyzed by LC-MS/MS.

| Structure (SMILES) | AUC(0-t) ([1]; dose 30, brain tissue) [ng·h/mL] | Cmax ([1]; dose 30, brain tissue) [ng/mL] | Tmax ([1]; dose 30, brain tissue) [h] | AUC(0-t) ([1]; dose 30, cerebrospinal fluid) [ng·h/mL] | Cmax ([1]; dose 30, cerebrospinal fluid) [ng/mL] | Tmax ([1]; dose 30, cerebrospinal fluid) [h] | AUC(0-t) ([1]; dose 30, plasma) [ng·h/mL] | Cmax ([1]; dose 30, plasma) [ng/mL] | Tmax ([1]; dose 30, plasma) [h] | AUC(0-t) ([2]; IV, 5 mg/kg) [ng·h/mL] | clearance ([2]; IV, 5 mg/kg) [mL/min/kg] | Vd ([2]; IV, 5 mg/kg) [L/kg] | AUC(0-t) ([2]; PO, 10 mg/kg) [ng·h/mL] | Cmax ([2]; PO, 10 mg/kg) [ng/mL] | Tmax ([2]; PO, 10 mg/kg) [h] | bioavailability ([2]; PO, 10 mg/kg) [%] | AUC(0-t) ([2]; PO, 100 mg/kg) [ng·h/mL] | Cmax ([2]; PO, 100 mg/kg) [ng/mL] | Tmax ([2]; PO, 100 mg/kg) [h] | bioavailability ([2]; PO, 100 mg/kg) [%] |
| --- | --- | --- | --- | --- | --- | --- | --- | --- | --- | --- | --- | --- | --- | --- | --- | --- | --- | --- | --- | --- |
| CCN1CCN(Cc2ccc(Nc3ncc(F)c(-c4cc(F)c5nc(C)n(C(C)C)c5c4)n3)nc2)CC1 [LY2835219, reference compound] | 18100 | 673 | 4 | 451 | 11.8 | 4 | 40500 | 1500 | 4 | 1590 | 50.2 | 5.79 | 1310 | 368 | 0.5 | 41.1 |  |  |  |  |
| CCN1CCN(Cc2cnc(Nc3cc(-c4cc(F)c5nc(C)n(C(C)C)c5c4)c(F)cn3)nc2)CC1 [Compound 1, 5-((4-ethylpiperazin-1-yl)methyl)-N-(5-fluoro-4-(4-fluoro-1-isopropyl-2-methyl-1H-benzo[d]imidazol-6-yl)pyridin-2-yl)pyrimidin-2-amine] | 12100 | 535 | 4 | 1290 | 106 | 4 | 49200 | 2610 | 4 | 2080 | 38.2 | 4.61 | 2760 | 675 | 2 | 65.5 | 33900 | 3080 | 2 | 77.9 |
